{"source": "patent US8987220B2", "about": "“Production of reprogrammed cells with restored potential” (Nupotential, Inc., priority 2005, dated 2015)", "key": {"[1]": {"test_system": "bovine serial nuclear transfer donor somatic cells", "assay": "Relative methylated cytosine by reverse-phase HPLC after ATRA treatment", "assay_type": "cell-based", "settings": "10-50 nM ATRA, cultured until confluent", "procedure": "Bovine serial nuclear transfer donor somatic cells (a cell line that has never produced a successful live animal and which is characterized by low blastocyst development rates (<10%, P<0.001) and low pregnancy initiation rates (<1%, P<0.05)) were cultured in T-75 flasks until confluent in growth media (CON), or growth media treated with DMSO, or ATRA (DMSO vehicle); 10 nM, 50 nM, and 100 nM ATRA concentrations were used. Following […] treatment, the cells were collected and DNA from the cells was isolated. The DNA was then completely digested into single nucleotides for reverse-phase HPLC. Reverse-phase HPLC was performed as described by Cezar et al. to measure the relative levels of methylated cytosine residues."}, "[2]": {"test_system": "GNMT", "assay": "GNMT gene expression by real-time RT-PCR (GNMT/GAPD ratio)", "assay_type": "cell-based, bovine"}, "[3]": {"test_system": "Oct4, Sox2 and nanog", "assay": "RT-PCR for stem cell/pluripotency markers after ATRA", "assay_type": "cell-based, bovine", "settings": "after ATRA treatment, data not shown", "procedure": "To determine whether differentiation potential was restored, bovine somatic cells were cultured in T-75 flasks until confluent in CON, DMSO, or ATRA media (same RA as in Example 1)."}, "[4]": {"test_system": "primary rat hepatocytes", "assay": "ATRA and adipogenic induction cocktail on primary hepatocytes", "assay_type": "cell-based", "procedure": "Primary rat hepatocytes were grown in media treated with 50-200 nM ATRA. Following treatment, cells were cultured under the same comparative conditions as described above for the bovine somatic cells, except an adipogenic induction cocktail (as described in EXAMPLE 2) was added to the T-75 flasks."}, "[5]": {"test_system": "3T3 L1 cells", "assay": "ATRA followed by osteogenic induction media", "assay_type": "cell-based, murine", "procedure": "3T3 L1 cells were grown in media treated with 50-200 nM ATRA. Following ATRA treatment, cells were transferred to 6-well plates and exposed to osteogenic induction media containing DMEM, FBS, ascorbic acid 2-phosphate, dexamethasone, beta glycerophosphate, and vitamin D for 21 days."}, "[6]": {"test_system": "bovine somatic cells", "assay": "ATRA followed by adipogenic induction cocktail"}, "[7]": {"settings": "50-200 nM ATRA then osteogenic induction 21 days"}}, "note": "Entries after “also recorded” stand apart in the source; their conditions may differ."}
{"smiles": "CC1=C(/C=C/C(C)=C/C=C/C(C)=C/C(=O)O)C(C)(C)CCC1", "note": "[ATRA, all-trans retinoic acid]", "values": [{"measurement": "reduction in methylated cytosine compared to CON", "setting": "[1]", "value": "8-10%"}, {"measurement": "GNMT gene expression (ratio of GNMT to GAPD)", "setting": "[2]; ATRA-treated growth media, real-time RT-PCR", "value": "upregulation"}, {"measurement": "response of GNMT transcription to ATRA", "setting": "[2]; prior experiments", "value": "dose response"}, {"measurement": "expression of Oct4, Sox2 and nanog", "setting": "[3]", "value": "upregulation and strong expression"}, {"measurement": "cell proliferation (confluency)", "setting": "[4]; 50-200 nM ATRA then adipogenic induction media, day 4", "value": "proliferated significantly"}, {"measurement": "cell morphology", "setting": "[4]; 50-200 nM ATRA, pronounced within 48 hours of induction media", "value": "Morphological changes"}, {"measurement": "alizarin staining for calcium phosphate mineralization", "setting": "[5]; [7]", "value": "positive staining; also recorded: calcium phosphate mineralization"}, {"measurement": "alkaline phosphatase staining for osteoblast-like cells", "setting": "[5]; [7]", "value": "positive staining"}, {"measurement": "osteocalcin and cbfa1 expression (osteoblast-specific markers)", "setting": "[5]; RT-PCR after ATRA and osteogenic induction", "value": "induction"}, {"measurement": "oil red-O staining (lipid)", "setting": "[6]; ATRA then adipogenic induction 11-12 days", "value": "positive"}, {"measurement": "PPARγ gene expression (adipocyte differentiation marker)", "setting": "[6]; PCR after induction, data not shown", "value": "induction"}, {"measurement": "cell morphology during exposure to ATRA", "setting": "[6]; structures similar to embryoid bodies", "value": "significant morphological changes"}]}
